ChEMBL document CHEMBL1201862, “PubChem BioAssay data set” (2004)
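Cultured in 96-well plates, cells were exposed to test compound for 48 hours across five concentrations. GI50 is the concentration that inhibits growth by half.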 Calls of active or inactive are those of the source. Cut-off read from the data, not from the text of the source: active = GI50 up to about 1.1 µM and inactive = higher.

Assays:
Test in all cases: NCI anticancer screen, dose series, 48 h
OVCAR-5 = system: OVCAR-5
A498 = system: A498
OVCAR-4 = system: OVCAR-4
NCI-H226 = system: NCI-H226
SK-OV-3 = system: SK-OV-3
SK-MEL-2 = system: SK-MEL-2
TK-10 = system: TK-10
SW-620 = system: SW-620
NCI-H23 = system: NCI-H23
MDA-MB-435 = system: MDA-MB-435
M14 = system: M14
HCT-116 = system: HCT-116
DU-145 = system: DU-145
SK-MEL-5 = system: SK-MEL-5
LOX IMVI = system: LOX IMVI
OVCAR-3 = system: OVCAR-3
U-251 = system: U-251
SF-295 = system: SF-295
KM12 = system: KM12
RXF 393 = system: RXF 393
SR = system: SR
EKVX = system: EKVX
COLO 205 = system: COLO 205
HCT-15 = system: HCT-15
UACC-257 = system: UACC-257
SF-539 = system: SF-539
SN12C = system: SN12C
CCRF-CEM = system: CCRF-CEM
HCC 2998 = system: HCC 2998
MOLT-4 = system: MOLT-4
K562 = system: K562
BT-549 = system: BT-549
UO-31 = system: UO-31
OVCAR-8 = system: OVCAR-8
RPMI-8226 = system: RPMI-8226
786-0 = system: 786-0
NCI/ADR-RES = system: NCI/ADR-RES
NCI-H522 = system: NCI-H522
HOP-92 = system: HOP-92
ACHN = system: ACHN
A549 = system: A549
PC-3 = system: PC-3
IGROV-1 = system: IGROV-1
UACC-62 = system: UACC-62
MDA-N = system: MDA-N
MDA-MB-231 = system: MDA-MB-231
HL-60 = system: HL-60
Malme-3M = system: Malme-3M
CAKI-1 = system: CAKI-1
MCF7 = system: MCF7
SF-268 = system: SF-268
SNB-19 = system: SNB-19
HOP-62 = system: HOP-62
SK-MEL-28 = system: SK-MEL-28
NCI-H460 = system: NCI-H460
Hs-578T = system: Hs-578T
HT-29 = system: HT-29
T47D = system: T47D
SNB-75 = system: SNB-75

CCOC(=O)/C(C#N)=C/Nc1c(C)n(C)n(-c2ccccc2)c1=O
GI50 (OVCAR-5): > 100000 nM (inactive) | GI50 (A498): > 100000 nM (inactive) | GI50 (OVCAR-4): > 100000 nM (inactive) | GI50 (NCI-H226): 43400 nM (inactive) | GI50 (SK-OV-3): > 100000 nM (inactive) | GI50 (SK-MEL-2): > 100000 nM (inactive) | GI50 (TK-10): > 100000 nM (inactive) | GI50 (SW-620): > 100000 nM (inactive) | GI50 (NCI-H23): > 100000 nM (inactive) | GI50 (MDA-MB-435): > 100000 nM (inactive) | GI50 (M14): > 100000 nM (inactive) | GI50 (HCT-116): > 100000 nM (inactive) | GI50 (DU-145): > 100000 nM (inactive) | GI50 (SK-MEL-5): > 100000 nM (inactive) | GI50 (LOX IMVI): > 100000 nM (inactive) | GI50 (OVCAR-3): > 100000 nM (inactive) | GI50 (U-251): > 100000 nM (inactive) | GI50 (SF-295): > 100000 nM (inactive) | GI50 (KM12): > 100000 nM (inactive) | GI50 (RXF 393): > 100000 nM (inactive) | GI50 (SR): > 100000 nM (inactive) | GI50 (EKVX): > 100000 nM (inactive) | GI50 (COLO 205): > 100000 nM (inactive) | GI50 (HCT-15): > 100000 nM | GI50 (UACC-257): > 100000 nM (inactive) | GI50 (SF-539): > 100000 nM (inactive) | GI50 (SN12C): > 100000 nM (inactive) | GI50 (CCRF-CEM): > 100000 nM (inactive) | GI50 (HCC 2998): > 100000 nM (inactive) | GI50 (MOLT-4): > 100000 nM (inactive) | GI50 (K562): > 100000 nM (inactive) | GI50 (BT-549): > 100000 nM (inactive) | GI50 (UO-31): > 100000 nM (inactive) | GI50 (OVCAR-8): > 100000 nM (inactive) | GI50 (RPMI-8226): > 100000 nM (inactive) | GI50 (786-0): > 100000 nM (inactive) | GI50 (NCI/ADR-RES): 47600 nM (inactive) | GI50 (NCI-H522): > 100000 nM (inactive) | GI50 (HOP-92): > 100000 nM (inactive) | GI50 (ACHN): > 100000 nM (inactive) | GI50 (A549): > 100000 nM (inactive) | GI50 (PC-3): > 100000 nM (inactive) | GI50 (IGROV-1): > 100000 nM (inactive) | GI50 (UACC-62): > 100000 nM (inactive) | GI50 (MDA-N): > 100000 nM (inactive) | GI50 (MDA-MB-231): > 100000 nM (inactive) | GI50 (HL-60): > 100000 nM (inactive) | GI50 (Malme-3M): > 100000 nM (inactive) | GI50 (CAKI-1): > 100000 nM (inactive) | GI50 (MCF7): > 100000 nM (inactive)

CC1=C(CO)C2=C(C)C3(CC3)[C@@](C)(O)C(=O)C2=C1 [IROFULVEN]
GI50 (OVCAR-5): 174 nM (active) | GI50 (A498): 179 nM (active) | GI50 (OVCAR-4): 237 nM (active) | GI50 (NCI-H226): 191 nM (active) | GI50 (SK-OV-3): 248 nM (active) | GI50 (SK-MEL-2): 196 nM (active) | GI50 (TK-10): 279 nM (active) | GI50 (SW-620): 614 nM (active) | GI50 (NCI-H23): 87.7 nM (active) | GI50 (MDA-MB-435): 1470 nM (inactive) | GI50 (SF-268): 234 nM (active) | GI50 (M14): 258 nM (active) | GI50 (HCT-116): 210 nM (active) | GI50 (DU-145): 92.9 nM (active) | GI50 (SK-MEL-5): 161 nM (active) | GI50 (SNB-19): 348 nM (active) | GI50 (LOX IMVI): 582 nM (active) | GI50 (HOP-62): 161 nM (active) | GI50 (OVCAR-3): 260 nM (active) | GI50 (U-251): 286 nM (active) | GI50 (SF-295): 302 nM (active) | GI50 (SK-MEL-28): 582 nM (active) | GI50 (KM12): 697 nM (active) | GI50 (NCI-H460): 46.7 nM (active) | GI50 (RXF 393): 50.7 nM (active) | GI50 (SR): 792 nM (active) | GI50 (EKVX): 190 nM (active) | GI50 (Hs-578T): 290 nM (active) | GI50 (COLO 205): 166 nM (active) | GI50 (HCT-15): 290 nM | GI50 (UACC-257): 227 nM (active) | GI50 (SF-539): 172 nM (active) | GI50 (SN12C): 409 nM (active) | GI50 (HT-29): 234 nM (active) | GI50 (CCRF-CEM): 1820 nM (inactive) | GI50 (HCC 2998): 153 nM (active) | GI50 (MOLT-4): 785 nM (active) | GI50 (K562): 3370 nM (inactive) | GI50 (UO-31): 190 nM (active) | GI50 (OVCAR-8): 219 nM (active) | GI50 (RPMI-8226): 34100 nM (inactive) | GI50 (786-0): 199 nM (active) | GI50 (NCI/ADR-RES): 241 nM (active) | GI50 (NCI-H522): 146 nM (active) | GI50 (HOP-92): 309 nM (active) | GI50 (ACHN): 262 nM (active) | GI50 (A549): 113 nM (active) | GI50 (PC-3): 267 nM (active) | GI50 (IGROV-1): 149 nM (active) | GI50 (MDA-N): 1040 nM (active) | GI50 (T47D): 218 nM (active) | GI50 (SNB-75): 191 nM (active) | GI50 (MDA-MB-231): 303 nM (active) | GI50 (HL-60): 237 nM (active) | GI50 (Malme-3M): 218 nM (active) | GI50 (CAKI-1): 265 nM (active) | GI50 (MCF7): 242 nM (active)
